Results from patent publication US20180369268A1, “METHODS FOR IDENTIFYING INHIBITORS OF "STIMULATOR OF INTERFERON GENE"- DEPENDENT INTERFERON PRODUCTION” (ADURO BIOTECH, INC., priority 2015, published 2018).

How the values were obtained:
hSTING WT = target: T1, hSTING WT (Homo sapiens, UniProt Q86WV6, H232R); test: Differential scanning fluorometry (DSF) Tm shift with purified STING AA140-379; type: binding; conditions: ligand 1 mM, 1 mg/ml STING AA140-379
T1 construct: DNA encoding amino acids 140-379 (amino acid numbering corresponding to Swiss Prot Q86WV6); 6xHIS-SUMO (with TEV site) (N, cleaved yes); made in house; host or cells: Rosetta2 (DE3) E. coli
T1 sequence (Q86WV6 140-379 H232R): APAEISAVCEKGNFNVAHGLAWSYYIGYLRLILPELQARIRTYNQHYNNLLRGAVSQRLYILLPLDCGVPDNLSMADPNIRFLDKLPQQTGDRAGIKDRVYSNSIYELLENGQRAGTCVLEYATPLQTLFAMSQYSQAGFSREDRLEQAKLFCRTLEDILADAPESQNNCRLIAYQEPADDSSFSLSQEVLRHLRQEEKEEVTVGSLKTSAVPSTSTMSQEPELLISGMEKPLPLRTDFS
Source text: (§1) DNA encoding amino acids 140-379 (amino acid numbering corresponding to Swiss Prot Q86WV6) was amplified from plasmids containing the full length sequence of human STING alleles via polymerase chain reaction with the following primers: forward […] (SEQ ID NO: 9) and reverse […] (SEQ ID NO: 10). STING variant alleles were assigned according to Yi, et al, (2013), PLoS One, 8(10), e77846 (DOI: 10.1371/journal.pone.0077846. PCR products were cloned into bacterial expression vector encoding a N-terminal hexa-histidine affinity tag (6×HIS) followed by a small ubiquitin-like modifier (SUMO) solubility sequence (Butt, et al, (2005) Protein expression and purification 43.1, 1-9) and tobacco etch virus protease cleavage site (TEV) using ligation independent cloning (Aslanidis, et al, (1990) Nucleic acids research, 18.20, 6069-6074).
(§2) Plasmids encoding 6×HIS-SUMO-TEV-STING amino acids 140-379 were transformed into Rosetta2 (DE3) E. coli cells (EMD Millipore) for protein expression. Cells were grown in lysogeny broth at 37° C. until a […] absorbance of 0.6 was reached. Cells were then transferred to 18° C. and protein expression was induced overnight by the addition of isopropyl β-D-1-thiogalactopyranoside to the media at a concentration of 0.25 mM. Cells were harvested by centrifugation at 6,000 times gravity for 10 minutes. Cell pellets were re-suspended on ice in a buffer containing 50 mM Tris hydrochloride (Tris-HCl) pH 7.5, 500 mM sodium chloride (NaCl), 20 mM imidazole, 10% glycerol, 1 mM tris(2-carboxyethyl)phosphine hydrochloride (TCEP) and protease inhibitor tablet (Pierce) (Buffer A). Cells were lysed using an S-450D sonifier (Emmerson industrial) on ice. Cell lysate was centrifuged at 15,000 times gravity for 30 minutes at 4° C. Soluble material was applied to nickel-nitrilotriacetic acid (Ni-NTA) coupled Sepharose CL-6B (Qiagen) for 1 hour with gentle rocking at 4° C. After transfer to a gravity flow poly-prep column (Bio-Rad), resin was washed extensively in buffer A. Protein was eluted from the column in a buffer containing 20 mM Tris-HCl pH 7.5, 150 mM NaCl, 300 mM imidazole, 10% glycerol and 0.5 mM TCEP. To remove the 6×HIS-SUMO tag eluted protein was mixed with TEV protease (Sigma) at a ratio of 1:250 (w:w) and dialyzed overnight against a buffer containing 20 mM Tris-HCl pH 7.5, 150 mM NaCl, 5 mM imidazole, 10% glycerol and 0.5 mM TCEP. TEV protease and 6×HIS-SUMO tags were depleted by the addition of Ni-NTA resin (Qiagen) to the sample, purified STING amino acids 140-379 was collected by removal of the resin using a poly-prep column STING AA140-379 was concentrated with a 10,000 Dalton molecular weight cutoff centrifuge concentrator (EMD Millipore) to a final concentration of approximately 10 mg/ml. Protein was aliquoted, flash frozen in liquid nitrogen and stored at −80° C. until use.
(§3) Differential scanning fluorometry (DSF) is a technique that measures the ability of ligands to bind to and stabilize purified proteins (Niesen, et al, (2007) Nature protocols 2.9, 2212-2221). The protein is heated in the presence of a dye that binds to and fluoresces in hydrophobic environments. The protein is thermally denatured by heating resulting in increased dye binding to the unfolded protein and fluorescence. The temperature midpoint (Tm) of a proteins denaturation is established by calculating the half maximal value of the denaturation curve. The temperature midpoint of the protein in the presence of a ligand is directly related to the affinity of the ligand for the protein and therefore its ability to stabilize the protein at higher temperatures.
(§4) DSF was performed in a 20 μL reaction comprising 20 mM Tris-HCl pH 7.5, 150 mM NaCl, 1:500 dilution of SYPRO Orange (Life Technologies), 1 mg/ml purified STING AA140-379 protein and ligand at a concentration of 1 mM. Wild type hSTING, HAQ allele hSTING and/or REF allele hSTING were used with scaffold molecules of the invention as listed in Table 2.

hSTING REF allele = target: T2, hSTING REF allele (Homo sapiens, UniProt Q86WV6); test: as above; type: binding; conditions: ligand 1 mM, 1 mg/ml STING AA140-379
T2 construct: DNA encoding amino acids 140-379 (amino acid numbering corresponding to Swiss Prot Q86WV6); 6xHIS-SUMO (with TEV site) (N, cleaved yes); made in house; host or cells: Rosetta2 (DE3) E. coli
T2 sequence (Q86WV6 140-379): as the sequence (Q86WV6 140-379 H232R) above, with R93H counted along it
Source text: as §1, §2, §3, §4

hSTING Tm Shift WT (hSTING WT) [°C] | hSTING Tm Shift REF (hSTING REF allele) [°C] | SMILES
8.2 | 7.5 | Nc1ccn([C@@H]2O[C@@H]3CO[P@@](=O)(S)O[C@H]4[C@@H](F)[C@H](n5cnc6c(N)ncnc65)O[C@@H]4CO[P@@](=O)(S)O[C@H]3[C@H]2F)c(=O)n1 [Compound 37, 4-amino-1-((2R,3R,3aR,5R,7aR,9R,10R,10aR,12R,14aR)-9-(6-amino-9H-purin-9-yl) 3,10-difluoro-5,12-dimercapto 5,12-dioxidooctahydro-2H,7H-difuro[3,2-d:3′,2′-j][1,3,7,9]tetraoxa[2,8]diphosphacyclododecin-2-yl)pyrimidin-2(1H)-one]
5.6 | 5.3 | Nc1ccn([C@@H]2O[C@@H]3CO[P@](=O)(S)O[C@H]4[C@@H](F)[C@H](n5cnc6c(N)ncnc65)O[C@@H]4CO[P@@](=O)(S)O[C@H]3[C@H]2F)c(=O)n1 [Compound 37a, 4-amino-1-((2R,3R,3aR,5R,7aR,9R,10R, 10aR,12S,14aR)-9-(6-amino-9H-purin-9-yl)-3,10-difluoro-5,12-dimercapto-5,12-dioxidooctahydro-2H,7H-difuro[3,2-d: 3′,2′-j][1,3,7,9]tetraoxa[2,8]diphosphacyclododecin-2-yl)pyrimidin-2(1H)-one]
2.0 | 2.3 | Nc1ncnc2c1ncn2[C@H]1O[C@H]2CO[P@](=O)(S)O[C@@H]3[C@H](O)[C@@H](n4cnc5c(N)ncnc54)O[C@H]3CO[P@](=O)(S)O[C@@H]2[C@@H]1O [Compound 48, (2S,3S,3aR,5S,7aS,9S,10S,10aR,12S,14aS)-2,9-bis(6-amino-9H-purin-9-yl)-3,10-dihydroxy-5,12-dimercaptooctahydro-2H,7H-difuro[3,2-d:3′,2′-j][1,3,7,9]tetraoxa[2,8]diphosphacyclododecine 5,12-dioxide]
2.9 | 6.3 | Nc1ncnc2c1ncn2[C@H]1O[C@H]2CO[P@@](=O)(S)O[C@@H]3[C@H](O)[C@@H](n4cnc5c(N)ncnc54)O[C@H]3CO[P@](=O)(S)O[C@@H]2[C@@H]1O [Compound 48a, Triethylammonium (2S,3S,3aR,5R,7aS,9S,10S,10aR,12S,14aS)-2,9-bis(6-amino-9H-purin-9-yl)-3,10-dihydroxyoctahydro-2H, 7H-difuro[3,2-d: 3′,2′-j][1,3,7,9]tetraoxa[2,8]diphosphacyclododecine-5,12-bis(thiolate) 5,12-dioxide]
3.0 | 6.4 | Nc1ncnc2c1ncn2[C@H]1O[C@H]2CO[P@@](=O)(S)O[C@@H]3[C@H](O)[C@@H](n4cnc5c(N)ncnc54)O[C@H]3CO[P@@](=O)(S)O[C@@H]2[C@@H]1O [Compound 48b, triethylammonium (2S,3S,3R,5R,7aS,9S,10S,10aR,12R,14aS)-2,9-bis(6-amino-9H-purin-9-yl)-3,10-dihydroxyoctahydro-2H,7H-difuro[3,2-d: 3′,2′-j][1,3,7,9]tetraoxa[2,8]diphosphacyclododecine-5,12-bis(thiolate) 5,12-dioxide]

The remaining lines, values behind:

SMILES | hSTING Tm Shift WT (hSTING WT) [°C] | hSTING Tm Shift REF (hSTING REF allele) [°C]
CC(C)(C)[Si](C)(C)O[C@H]1[C@H]2O[P@@](=O)(S)OC[C@H]3O[C@@H](n4cnc5c(N)ncnc54)[C@H](F)[C@@H]3O[P@](=O)(S)OC[C@H]1O[C@H]2n1cnc2c(N)ncnc21 [Compound 6a, dithio-[SP, RP]-cyclic-[3′OTBS-A(2′,5′)p-2′F-A(3′,5′)p]] | 9.0 | 4.8
Nc1nc(N)c2ncn([C@@H]3O[C@@H]4CO[P@@](=O)(S)O[C@H]5[C@@H](O)[C@H](n6cnc7c(N)nc(N)nc76)O[C@@H]5CO[P@@](=O)(S)O[C@H]4[C@H]3O)c2n1 [Compound 23, (2R,3R,3aS,5R,7aR,9R,10R,10aS,12R,14aR)-2,9-bis(2,6-diamino-9H-purin-9-yl)-3,10-dihydroxy-5,12-dimercaptooctahydro-2H,7H-difuro[3,2-d:3′,2′-j][1,3,7,9]tetraoxa[2,8]diphosphacyclododecine 5,12-dioxide] | 12.2 | 8.3
Nc1nc(N)c2ncn([C@@H]3O[C@@H]4CO[P@@](=O)(S)O[C@H]5[C@@H](O)[C@H](n6cnc7c(N)nc(N)nc76)O[C@@H]5CO[P@](=O)(S)O[C@H]4[C@H]3O)c2n1 [Compound 23a, (2R,3R,3aS,5R,7aR,9R,10R,10aS,12S,14aR)-2,9-bis(2,6-diamino-9H-purin-9-yl)-3,10-dihydroxy-5,12-dimercaptooctahydro-2H,7H-difuro[3,2-d:3′,2′-j][1,3,7,9]tetraoxa[2,8]diphosphacyclododecine 5,12-dioxide] | 10.0 | 3.1
CC(C)C(=O)Nc1nc2c(ncn2[C@@H]2O[C@@H]3CO[P@@](=O)(S)O[C@H]4[C@@H](F)[C@H](n5cnc6c(=O)[nH]c(NC(=O)C(C)C)nc65)O[C@@H]4CO[P@@](=O)(S)O[C@H]3[C@H]2F)c(=O)[nH]1 [Compound 32, N,N′-(((2R,3R,3aR,5R,7aR,9R,10R,10aR,12R,14aR)-3,10-difluoro-5,12-dimercapto-5,12-dioxidooctahydro-2H, 7H-difuro[3,2-d:3′,2′-j][1,3,7,9]tetraoxa[2,8]diphosphacyclododecine-2,9-diyl)bis(6-oxo-6,9-dihydro-1H-purine-9,2-diyl))bis(2-methylpropanamide)] | 10.7 | 10.5
